Test results published in PubChem BioAssay (NCI).
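96-well plates; 48 h exposure; 5 concentrations. Endpoints by linear interpolation between flanking doses. Not reached: highest tested concentration assigned. At the GI50, growth is halved. Definition used: TGI = concentration required for complete inhibition of growth.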

Tested on: MDA-MB-468 breast
Assay: growth of human tumour cells (NCI), 48 h

With `COc1cc(C2C3=C(COC3=O)Nc3cc4c(cc32)CCC4)cc2c1OCO2` (stereo unspecified) the GI50 was 0.0281 µM and the TGI was 0.147 µM.
Compound `C[C@]12CCc3sc(Nc4ccc(O)cc4)nc3C1=CC[C@@H]1[C@@H]2CC[C@]2(C)C(=O)CC[C@@H]12` has a GI50 of 2.17 µM and a TGI of 5.8 µM.
In the case of `CCN1C(=O)N(CC)C2C1NN=c1s/c(=C\c3cc4ccccc4[nH]3)c(=O)n12` (stereo unspecified), the GI50 is reported as < 0.01 µM and the TGI is reported as 8.52 µM.
For `O=C(N/N=C/c1cc([N+](=O)[O-])ccc1O)c1cccc2ccccc12`, the GI50 was 1.52 µM and the TGI was 4.74 µM.
In the case of `COc1cc(C2CC(c3ccc(N(C)C)cc3)=NN2C(C)=O)cc(OC)c1OC` (stereo unspecified), the GI50 is reported as 1.72 µM and the TGI is reported as > 100 µM.
With `Nc1n[nH]c2cccc(C#Cc3cccc(C(=O)Nc4cc(CN5CCOCC5)cc(C(F)(F)F)c4)c3)c12` the GI50 was 3.47 µM and the TGI was 12.9 µM.
`FC(F)(F)c1ccc(-c2cnc(Cl)nc2NCc2cc(C(F)(F)F)cc(C(F)(F)F)c2)cc1` was tested, and the GI50 was 2.06 µM and the TGI was 9.15 µM.
`CCOc1ccccc1/C=N\N=C(\N)N/N=C/c1ccccc1OCC` gave a GI50 of 1.72 µM and a TGI of 8.48 µM.
With `CC(=O)O[C@H]1CC[C@@]2(C)[C@@H](CC[C@@H]3[C@@H]2CC[C@]2(C)C=C(C=O)C[C@@H]32)C1` the GI50 was 15.5 µM and the TGI was 38.2 µM.
With `CCCCCCCOc1c(OC)cc(C2CC(=O)Nc3c2c(C)nn3-c2nc3ccccc3[nH]2)cc1OC` (stereo unspecified) the GI50 was 2.45 µM and the TGI was 7.12 µM.
In the case of `CCN(CC)c1ccc(C(=N)c2ccc(N(C)C)cc2)cc1`, the GI50 is reported as 0.113 µM and the TGI is reported as 2.25 µM.
`Cc1[nH]c2ccccc2c1CCNCc1ccc(/C=C/C(=O)NO)cc1` was tested, and the GI50 was < 0.01 µM and the TGI was 0.14 µM.
Compound `CN(C)CC1CCCCCC(CN(C)C)C1=O` (stereo unspecified) has a GI50 of 0.502 µM and a TGI of 2.54 µM.
`C=C1CCC2C3(C)COC(c4ccccc4Br)OC3CCC2(C)C1C/C=C1/C(=O)OCC1OC(C)=O` (stereo unspecified) gave a GI50 of 1.2 µM and a TGI of 2.82 µM.
With `CS(=O)(=O)Nc1ccc(N=Cc2c(O)[nH]c3ccccc23)cc1` the GI50 was > 25 µM and the TGI was > 25 µM.
`CC1(C)CC[C@]2(C(=O)N3CCOCC3)CC[C@]3(C)C(=CC[C@@H]4[C@@]5(C)C/C(=C/c6ccncc6)C(=O)C(C)(C)[C@@H]5CC[C@]43C)[C@@H]2C1` was tested, and the GI50 was 0.712 µM and the TGI was > 100 µM.
In the case of `CCCCN(CCCC)c1ccc(C(=NC(C)CCCN(CC)CC)c2ccc(N(C)C)cc2)cc1` (stereo unspecified), the GI50 is reported as 0.795 µM and the TGI is reported as 1.67 µM.
`CN1CCN(Cc2ccc(NC(=O)c3cncc(C#Cc4cnc5ccc(OCC(F)F)nn45)c3)cc2C(F)(F)F)CC1` was tested, and the GI50 was 0.428 µM and the TGI was 1.33 µM.
In the case of `CN(C)c1ccc(C(=C2C=CC(=[N+](C)C)C=C2)c2ccc(N(C)C)cc2)cc1`, the GI50 is reported as 0.12 µM and the TGI is reported as 0.43 µM.
For `Nc1c(C(=O)Nc2ccccc2)sc2nc3c(cc12)CN(Cc1ccccc1)CC3`, the GI50 was 17 µM and the TGI was > 100 µM.
For `COCCNc1cc(NC(=O)N2CCCc3cc(CN4CCN(C)CC4=O)c(C=O)nc32)ncc1C#N`, the GI50 was 26.5 µM and the TGI was > 50 µM.
Work on `O=C(COc1cccc(/C=C2\COc3ccc(Cl)cc3C2=O)c1)c1ccc(Cl)cc1` yielded a GI50 of 2.82 µM and a TGI of 9.26 µM.
For `O=C(CN1CCN(c2ccccc2)CC1)N1CCN(c2nnc(-c3ccc(Cl)cc3)c(-c3ccc(Cl)cc3)n2)CC1`, the GI50 was 18.9 µM and the TGI was 95.3 µM.
For `CCCOc1nc(SCCC)nc2c1cnn2-c1ccccc1`, the GI50 was > 100 µM and the TGI was > 100 µM.
`O=C(c1cccnc1)c1cc(-c2ccccn2)c(=O)n2ccccc12` was tested, and the GI50 was > 100 µM and the TGI was > 100 µM.
In the case of `COc1ccc(-c2nn(-c3cccc(Cl)c3)cc2-c2cc(-c3ccccc3)nc(N)n2)cc1`, the GI50 is reported as 1.72 µM and the TGI is reported as 3.59 µM.
For `CC(C)(C#N)c1cc(C(=O)Nc2cc(Nc3ncccc3-c3ncnc4nc[nH]c34)ccc2F)cc(C(F)(F)F)c1`, the TGI was > 4.09 µM.
For `Nc1ccc(-c2ccc(N)cc2I)c(I)c1`, the GI50 was 5.93 µM and the TGI was 44.9 µM.
In the case of `CCCCNC(=O)NS(=O)(=O)c1ccc(N2N=C(c3cc(C)ccc3C)CC2c2cc(OC)c(OC)c(OC)c2)cc1` (stereo unspecified), the GI50 is reported as 2.17 µM and the TGI is reported as 5.35 µM.
`CCNCCNc1cc(C2CCCCC2)c(C#N)c2nc3ccccc3n12` was tested, and the GI50 was 0.751 µM and the TGI was 2.1 µM.
`OCC1OC(n2cnc3c(=S)nc[nH]c32)C(O)C1O` (stereo unspecified) was tested, and the GI50 was 0.631 µM and the TGI was > 100 µM.
